Values of other authors in patent publication US20160175250A1, “Method for Making Liposomes Containing an Active Pharmaceutical Ingredient” (Tolmar Inc., priority 2014, published 2016).

Conditions: patients receiving doses greater than 550 mg per square meter of body area

Question: For `COc1cccc2c1C(=O)c1c(O)c3c(c(O)c1C2=O)C[C@@](O)(C(=O)CO)C[C@@H]3O[C@H]1C[C@H](N)[C@H](O)[C@H](C)O1` [doxorubicin, Doxorubicin], which “congestive heart failure from cumulative dose dependent irreversible cardiomyopathy, share of patients” value is on record?
Answer: 1-10%
